Data from patent publication US20160038516A1, “COMBINATION CANCER THERAPY USING BISPHOSPHONATES AND ANTI-EGFR AGENTS” (Mone Zaidi Consulting, Inc., priority 2012, published 2016).
“Also recorded” adds a separate entry of the source. Blank lines part the entries; values can stand above or below the compound they belong to.

Legend:
[1] = system: osteoclast formation; test: Osteoclast formation assays in vitro; assay type: cell-based; conditions: data not shown
Method: We interrogated CMAP with this gene signature to identify chemicals with similar genomic mechanisms to bisphosphonates. Drug-drug matching was performed by a nonparametric, rank-based algorithm using Kolmogorov-Smirnov statistic. Gene Set Enrichment Analysis (GSEA) examined shared mechanisms of action to reveal both mimics and anti-mimics of a given compound or disease. Of the chemicals displaying the highest enrichment scores, the top two were anti-cancer agents, namely the PARP inhibitor 1,5-isoquinolinediol, and a first-generation EGFR kinase inhibitor tyrphostin AG1478 (FIG. 2). These compounds were confirmed as “true” bisphosphonate mimetics using osteoclast formation assays in vitro. As with bisphosphonates, osteoclast formation was inhibited by both 1,5-isoquinolinediol and tyrphostin AG1478, the latter in a concentration-dependent manner (data not shown).

[2] = system: HCC827 (del746-750) lung cancer cell line; assay type: cell-based
Method: (§1) To validate this, we evaluated the cellular effects of bisphosphonates in EGFR-negative and EGFR-positive cancer cell lines. Mutated cancer cell lines, namely H520, H1666, H3255, HC827, A549, H1650, MCF-7, Caco-2, SW620, and SW480, were grown using standard protocols, and exposed to bisphosphonates. Thereafter, the cells were subject to the MTT assay to assess viability using a commercial kit. Additionally, in certain instances, annexin V staining was performed using a previously described protocol. Quantitative PCR (qPCR) for BCL, Bax, survivin, as well as for the thirteen bisphosphonate signature genes (FIG. 1) was carried out. Protein extracts were subject to SDS-PAGE followed by Western immunoblotting using antibodies to PARP, Akt (total and phosphorylated), Erk (total and phosphorylated), cyclin D1, cyclin B1, PCNA, and GAPDH (Santa Cruz, USA). Flow cytometry and colony forming assays were also performed.
(§2) Based on this prediction, and the common occurrence of these mutations in lung cancer patients, we examined the effect of available approved bisphosphonates on lung cancer cell lines that are driven by the L858R (H3255) or del746-750 (HCC827) mutation (FIGS. 6 and 7).

[3] = system: H3255 (L858R) lung cancer cell line
Method: as §1, §2

[4] = molecular target: T1, recombinant Her2 (Homo sapiens, UniProt P04626); test: Cell-free in vitro kinase assay using recombinant Her2 (Kinase-Glo); assay type: biochemical; conditions: incubated 30 minutes with 50 ng recombinant Her2
T1 construct: purchased GENWAY
Method: We also performed a cell-free in vitro kinase assay to determine if bisphosphonates could inhibit Her2 activity. Briefly, Ert, ZA, Ris, MA, or Til (doses as shown in FIG. 28A) were incubated for 30 minutes with 50 ng recombinant Her2 or EGFR^L858R protein (GENWAY) at 4° C. and tyrosine kinase activity was measured. Following addition of assay buffer (SIGMA) which contained the poly(Glu, Tyr) (4:1) substrate and ATP, the kinase reaction was allowed to proceed for 30 minutes at 30° C. An equal volume of Kinase-Glo substrate (PROMEGA) was then added, and luminescence read manually (TD-20/20, TURNER DESIGN).

[5] = system: HER2-expressing (BT474) breast cancer cell line; test: FACS cell cycle profile (sub-G1), BT474; assay type: cell-based
[6] = system: HCC827 cells; test: Colony formation, HCC827; assay type: cell-based; conditions: tiludronate 40 μM
Method: as §1, §2

[7] = system: MDA-MB-231 cells; test: MTT cell viability, MDA-MB-231; assay type: cell-based; conditions: MDA-MB-231, overexpress EGFR
Text: (§3) Thereafter, the cells were subject to the MTT assay to assess viability using a commercial kit.

[8] = system: BT474 cells; test: MTT cell viability, BT474; assay type: cell-based; conditions: BT474, overexpress Her2
Text: as §3

[9] = system: MDA-MB-231 cells; test: Colony formation, MDA-MB-231; assay type: cell-based; conditions: tiludronate 20 μM, data not shown
[10] = system: EGFR negative (SW620) colon cancer cell line; test: Colony formation (clonogenic assay), SW620; assay type: cell-based
Method: as §1

[11] = system: EGFR-expressing colon cells (SW480); test: Colony formation (clonogenic assay), SW480; assay type: cell-based
Method: as §1

[12] = system: non-EGFR, non-HER2-expressing (MDA-MB-453) breast cancer cell line; test: FACS cell cycle profile (sub-G1), MDA-MB-453; assay type: cell-based
[13] = system: EGFR-expressing (MDA-MB-231) breast cancer cell line; test: FACS cell cycle profile (sub-G1), MDA-MB-231; assay type: cell-based
[14] = system: H1975 (L858R/T790M) lung adenocarcinoma cell line; test: Colony formation, H1975; assay type: cell-based
Method: To test this hypothesis, colony formation and cell viability assays were carried out using a L858R/T790M-derived lung adenocarcinoma cell line, H1975.

[15] = system: HCC827 cells; test: FACS analysis and Western blotting for cell cycle and apoptosis, HCC827; assay type: cell-based
Method: as §1

[16] = system: lung cancer cell line A549; conditions: A549, wild type EGFR, ras mutation driven
Method: as §1

[17] = system: HCC827 cells; conditions: mouse, in vivo
Method: To verify that that the in vitro experiments described above translated to in vivo efficacy, the effect of bisphosphonates and EGFR inhibitors on tumors in mice were evaluated. HCC827 cells (1×10^8) were injected into the right flank of 6- to 8-week-old female BALB/c nu/nu mice. […] A total of 10 treatments were given, with a 48-hour rest period between injections. Tumor volumes were measured during the rest period following each treatment.
To verify the in vivo mechanism of action, Western analysis and immunohistochemistry were performed on tumor samples at the end of the 10-treatment course. For Western analysis, whole cell protein extracts were obtained with radio-immunoprecipitation assay buffer following standard protocols (Santa Cruz Biotechnology). […] Biotinylated anti-rabbit IgG (E0432, Dako) was used as secondary antibody. Staining was visualized using DAB, and slides were counterstained with hematoxylin, dehydrated, and mounted. Bright-field and fluorescent images were captured using a Stereoscope or Axioplan 2 IE microscope (Zeiss).

[18] = molecular target: recombinant EGFR (Homo sapiens, UniProt P00533); conditions: 100 μM, incubated 1 hour
Text: We used a cell-free in vitro kinase assay using recombinant EGF receptor (EGFR) to determine whether bisphosphonates inhibit the EGFR directly or indirectly. […] A kinase reaction was stimulated with the addition of ATP, following which phosphorylation of the substrate […] was detected using a horseradish peroxidase (HRP)-conjugated anti-phosphotyrosine antibody.

T1 sequence (P04626 23-1255): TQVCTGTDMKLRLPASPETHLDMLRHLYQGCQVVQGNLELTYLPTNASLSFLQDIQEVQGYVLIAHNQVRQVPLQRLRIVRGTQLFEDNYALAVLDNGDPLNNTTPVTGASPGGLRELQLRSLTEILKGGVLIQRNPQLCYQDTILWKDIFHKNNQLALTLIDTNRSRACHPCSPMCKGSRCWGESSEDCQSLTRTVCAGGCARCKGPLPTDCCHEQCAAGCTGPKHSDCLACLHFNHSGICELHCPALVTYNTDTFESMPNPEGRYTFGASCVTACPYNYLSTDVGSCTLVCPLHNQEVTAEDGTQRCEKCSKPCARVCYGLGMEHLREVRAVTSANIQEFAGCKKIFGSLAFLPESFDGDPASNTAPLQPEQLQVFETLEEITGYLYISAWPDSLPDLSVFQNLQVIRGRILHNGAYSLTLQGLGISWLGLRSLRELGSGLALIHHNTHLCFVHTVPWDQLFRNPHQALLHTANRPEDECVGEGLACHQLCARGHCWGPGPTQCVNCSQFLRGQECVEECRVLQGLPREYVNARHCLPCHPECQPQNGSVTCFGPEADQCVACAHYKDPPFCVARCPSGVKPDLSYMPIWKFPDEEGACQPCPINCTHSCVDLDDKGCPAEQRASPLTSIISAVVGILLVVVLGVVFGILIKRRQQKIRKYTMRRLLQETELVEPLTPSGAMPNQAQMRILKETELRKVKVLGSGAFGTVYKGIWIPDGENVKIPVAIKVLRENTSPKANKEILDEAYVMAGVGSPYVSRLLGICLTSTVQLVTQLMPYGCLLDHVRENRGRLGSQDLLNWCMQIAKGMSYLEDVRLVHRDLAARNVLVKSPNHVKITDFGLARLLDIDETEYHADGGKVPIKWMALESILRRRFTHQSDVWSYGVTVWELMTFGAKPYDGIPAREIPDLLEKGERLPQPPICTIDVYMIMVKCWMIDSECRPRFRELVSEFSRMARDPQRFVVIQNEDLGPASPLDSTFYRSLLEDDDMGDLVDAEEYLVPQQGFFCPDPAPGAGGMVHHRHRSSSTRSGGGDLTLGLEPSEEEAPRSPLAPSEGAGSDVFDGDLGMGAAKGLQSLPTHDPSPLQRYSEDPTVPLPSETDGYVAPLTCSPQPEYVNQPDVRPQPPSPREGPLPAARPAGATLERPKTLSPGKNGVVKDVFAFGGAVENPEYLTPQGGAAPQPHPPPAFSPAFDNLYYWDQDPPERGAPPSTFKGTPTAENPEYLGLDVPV
Sequence of recombinant EGFR (P00533 25-1210): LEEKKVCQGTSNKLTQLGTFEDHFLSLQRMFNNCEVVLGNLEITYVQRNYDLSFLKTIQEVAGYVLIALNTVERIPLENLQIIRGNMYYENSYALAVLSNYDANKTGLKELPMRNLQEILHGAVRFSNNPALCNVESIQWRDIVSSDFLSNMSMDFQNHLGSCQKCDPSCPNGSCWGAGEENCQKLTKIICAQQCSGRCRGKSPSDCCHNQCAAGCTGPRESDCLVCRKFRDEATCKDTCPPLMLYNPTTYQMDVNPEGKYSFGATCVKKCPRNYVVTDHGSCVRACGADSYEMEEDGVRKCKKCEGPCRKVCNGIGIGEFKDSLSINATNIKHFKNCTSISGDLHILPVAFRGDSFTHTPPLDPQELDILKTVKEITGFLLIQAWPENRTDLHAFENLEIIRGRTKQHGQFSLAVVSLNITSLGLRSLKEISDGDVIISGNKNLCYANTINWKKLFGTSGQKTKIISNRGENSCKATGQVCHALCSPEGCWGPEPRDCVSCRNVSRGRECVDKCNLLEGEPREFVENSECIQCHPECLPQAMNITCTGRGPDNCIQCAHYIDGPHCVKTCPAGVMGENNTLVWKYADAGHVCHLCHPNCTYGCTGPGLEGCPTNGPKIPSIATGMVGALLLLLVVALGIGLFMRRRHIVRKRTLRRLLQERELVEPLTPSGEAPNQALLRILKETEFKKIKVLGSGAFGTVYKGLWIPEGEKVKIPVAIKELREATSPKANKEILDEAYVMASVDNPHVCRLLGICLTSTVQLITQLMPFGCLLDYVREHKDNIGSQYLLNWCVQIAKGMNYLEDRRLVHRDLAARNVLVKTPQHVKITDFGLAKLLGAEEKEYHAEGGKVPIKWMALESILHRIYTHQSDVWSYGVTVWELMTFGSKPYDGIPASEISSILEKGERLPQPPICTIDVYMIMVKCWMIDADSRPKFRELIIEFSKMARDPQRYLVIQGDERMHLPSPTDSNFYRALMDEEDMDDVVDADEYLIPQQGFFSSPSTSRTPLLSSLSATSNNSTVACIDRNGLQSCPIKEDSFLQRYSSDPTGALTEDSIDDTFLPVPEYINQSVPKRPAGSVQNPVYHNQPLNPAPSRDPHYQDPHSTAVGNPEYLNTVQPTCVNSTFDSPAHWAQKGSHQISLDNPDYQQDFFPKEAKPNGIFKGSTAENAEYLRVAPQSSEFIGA

SMILES: Oc1cccc2c(O)nccc12 [1,5-isoquinolinediol]
osteoclast formation [1]: inhibited

SMILES: NCCC(O)(P(=O)(O)O)P(=O)(O)O [pamidronate]
cell viability / cell survival [2]: failed to affect HCC827 cell viability

SMILES: O=P(O)(O)C(NC1CCCCCC1)P(=O)(O)O [incadronate]
cell viability / cell survival [2]: inhibiting cell survival
cell viability / cell survival [3]: inhibiting cell survival

SMILES: O=P(O)(O)C(Sc1ccc(Cl)cc1)P(=O)(O)O [tiludronate]
Her2 tyrosine kinase activity [4]: inhibit the tyrosine kinase activity of Her2
sub-G1 fraction (apoptosis) [5]: has no effect
colony formation [6]: not seen
cell viability [7]: has no effect
cell viability [8]: has no effect
colony formation [9]: not seen
cell viability / cell survival [2]: failed to affect cell viability; also recorded: without effect
colony formation [10]: has no effect
colony formation [11]: has no effect
cell viability / cell survival [3]: failed to affect cell viability; also recorded: without effect
sub-G1 fraction (apoptosis) [12]: has no effect
sub-G1 fraction (apoptosis) [13]: has no effect
colony formation [14]: did not affect colony formation

SMILES: C#Cc1cccc(Nc2ncnc3cc(OCCOC)c(OCCOC)cc23)c1 [erlotinib]
Her2 tyrosine kinase activity [4]: inhibit the tyrosine kinase activity of Her2
cell cycle and apoptosis [15]: mainly increased PARP expression and apoptosis
cell viability [16]: poorly responsive
AKT phosphorylation in tumor samples [17]: inhibited AKT phosphorylation
CD31 expression (blood vessels) in tumors [17]: inhibited CD31 expression
ERK phosphorylation in tumor samples [17]: did not inhibit ERK phosphorylation
colony formation [14]: did not inhibit colony formation

SMILES: O=P(O)(O)C(O)(Cc1cccnc1)P(=O)(O)O [risedronate]
Her2 tyrosine kinase activity [4]: inhibit the tyrosine kinase activity of Her2
cell viability / cell survival [2]: inhibiting cell survival
cell viability / cell survival [3]: inhibiting cell survival

SMILES: NCCCCCC(O)(P(=O)(O)O)P(=O)(O)O [neridronate]
cell viability / cell survival [2]: failed to affect HCC827 cell viability

EGFR kinase activity [18]: directly inhibited EGFR kinase activity
SMILES: NCCCC(O)(P(=O)(O)O)P(=O)(O)O [alendronate]
cell viability / cell survival [2]: inhibiting cell survival
cell viability / cell survival [3]: inhibiting cell survival

SMILES: COc1cc2ncnc(Nc3cccc(Cl)c3)c2cc1OC [tyrphostin AG1478]
osteoclast formation [1]: inhibited

SMILES: O=P(O)(O)C(O)(Cc1cnc2ccccn12)P(=O)(O)O [minodronic acid]
Her2 tyrosine kinase activity [4]: inhibit the tyrosine kinase activity of Her2
cell viability / cell survival [2]: inhibiting cell survival; also recorded: two most potent
cell viability / cell survival [3]: inhibiting cell survival; also recorded: two most potent
